The source of these data is US20060097218A1, “Etchants containing filterable surfactant” (General Chemical Performance Products LLC, priority 2004, published 2006).

Common to all, as to assay type: physicochemical
Data set [1] in a line: Surface tension measurement of surfactant-containing etchant. Conditions: BOE 7-1 (about 35% NH4F, about 6.3% HF); 25° C.; prior to filtration; incremental additions until ST stabilized or saturation. How it is done: In the examples, a surfactant was added to a mixture of predetermined amounts of hydrofluoric acid, ammonium fluoride and deionized water to prepare an etchant composition. The prepared composition was kept standing at room temperature and test samples were periodically withdrawn to measure the change of surface tension of the composition.
(§1) A preliminary testing was conducted prior to filtration to evaluate whether individual components of the claimed surfactant(s), would work individually, need modification, or require combining to give a basic understanding which would lead to synthesis of the surfactant(s) of the invention. Potential surfactant candidates were prepared and evaluated in an aqueous mixture comprised of about 35% by weight of ammonium fluoride, NH4F, and about 6.3% by weight of hydrofluoric acid, HF, (defined as BOE 7-1).
In this run, surfactant “H” was tested with an aqueous solution of mixed etchants consisting of about 85% by weight of sulfuric acid, about 5% by weight of nitric acid, and about 1.5% by weight hydrofluoric acid. 100 ppm (Sample 1) and 200 ppm (Sample 2) by weight of surfactant “H” were mixed into two separate samples of FS Etch. The surface tension of both unfiltered samples was measured 1 hour upon batch completion and after 15 days of storage.
Additional measurements of surface tension at 25° C. were carried out on unfiltered aqueous etchants of (1) 40% by weight ammonium fluoride, and (2) 9.2% by weight of hydrofluoric acid containing 100 ppm by weight of surfactant “H” (Table I).

Data set [2] in a line: Solubility of surfactant in BOE (saturation point). Conditions: BOE 7-1; prior to filtration. As for the experimental part:
Potential surfactant candidates were prepared and evaluated in an aqueous mixture comprised of about 35% by weight of ammonium fluoride, NH4F, and about 6.3% by weight of hydrofluoric acid, HF, (defined as BOE 7-1).

Data set [3] is described as follows: Preliminary testing of potential surfactants: comments and overall assessment. Conditions: BOE 7-1; prior to filtration. As for the experimental part:
as §1

`NC1CCCCCC1` [Surfactant A, Cycloheptylamine] showed a Surface Tension in data set [1] of 72 dynes/cm. The “Solubility In BOE” value in data set [2] was “≦400 ppm”. In addition, in data set [3], the Comments entry was “ST too high” and the “Promising (Yes/No)” value is “No”.
The like results for `NC1CCCCCCC1` [Surfactant B, Cyclooctylamine] were, in that order, 65 dynes/cm, “≦600 ppm”, “ST too high” and “No”.
For `NC1CCCC1` [Surfactant C, Cyclopentylamine] the same measures were 65 dynes/cm, “≦400 ppm”, “ST too high” and “No”.
For `O=C(O)C(F)(F)C(F)(F)C(F)(F)C(F)(F)C(F)(F)C(F)(F)C(F)(F)F` [Surfactant D, Perfluorooctanoic Acid] the same measures were 20 dynes/cm, “≦100 ppm”, “Precipitated” and “No”.
As to `O=C(O)C(F)(F)C(F)(F)C(F)(F)C(F)(F)C(F)(F)C(F)(F)F` [Surfactant E, Perfluoroheptanoic Acid], the Surface Tension in data set [1] came to 20 dynes/cm. In addition, in data set [2], the “Solubility In BOE” value was “≦100 ppm”. For the same compound, in data set [3], the Comments result is listed as “Precipitated” and the “Promising (Yes/No)” value is “No”.
For `O=C(O)C(F)(F)C(F)(F)C(F)(F)C(F)(F)C(F)(F)C(F)(F)C(F)(F)C(F)(F)F` [Surfactant F, Perfluorononanoic Acid] the same measures were 25 dynes/cm, “≦100 ppm”, “Precipitated” and “No”.
`O=C(O)C(F)(F)C(F)(F)C(F)(F)C(F)(F)F` [Surfactant G, Perfluoropentanoic Acid]: in data set [1], the Surface Tension came to 24 dynes/cm. Further, the “Solubility In BOE” value in data set [2] is “≦100 ppm”. For the same compound, in data set [3], the Comments entry is reported as “Precipitated” and the “Promising (Yes/No)” value is recorded as “No”.
